Source: PMC9218685, “Legume Plant Peptides as Sources of Novel Antimicrobial Molecules Against Human Pathogens” (Frontiers in Molecular Biosciences, 2022)
Converted amounts (≈) assume the structure as drawn. “Also recorded” adds a separate entry of the source. Peptide text beside a SMILES is read from it.

Tests used:
Format in all cases: cell-based
[1] = tested on: Acinetobacter baumannii (ATCC 17978); assay: microbe, parasite or virus in culture; settings: ATCC 17978, 3 h
Method in brief: (§1)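 MBC read as lowest peptide concentration giving no viable bacteria; ~10^7 log-phase cells, PPB pH 7.4, 3 h treatment, 2-fold dilutions from 25 µM.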

[2] = tested on: Escherichia coli (ATCC 8739); settings: ATCC 8739, 3 h
Method in brief: as §1

[3] = tested on: Pseudomonas aeruginosa (ATCC 27853); settings: ATCC 27853, 3 h
Method in brief: as §1

[4] = tested on: Salmonella enterica (ATCC 13076); settings: ATCC 13076, 3 h
Method in brief: as §1

[5] = tested on: Klebsiella pneumoniae (NCTC 13440); settings: NCTC 13440, 3 h
Method in brief: as §1

[6] = tested on: Staphylococcus aureus (HNCMO112011); settings: HNCMO112011, 3 h
Method in brief: as §1

[7] = tested on: E. coli, S. enteritidis, P. aeruginosa, L. monocytogenes, S. aureus, E. faecalis, K. pneumoniae and A. baumannii; assay: Antimicrobial activity assay, spectrum over the eight tested pathogenic bacteria; settings: 3 h treatment of ~10^7 log phase bacteria, peptides 25 to 0.8 µM; active = MBC ≤25 µM
Method in brief: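 Log-phase bacteria (~10^7) treated 3 h with NCR peptides in potassium-phosphate buffer pH 7.4, two-fold dilutions from 25 µM to 0.8 µM. MBC is the lowest concentration completely eliminating viable bacteria. Strains: E. faecalis ATCC 29212, S. aureus HNCMO112011, L. monocytogenes ATCC 19111, P. aeruginosa ATCC 27853, E. coli ATCC 8739, S. enterica ATCC 13076, K. pneumoniae NCTC 13440, A. baumannii ATCC 17978.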

[8] = tested on: Listeria monocytogenes (ATCC 19111); settings: ATCC 19111, 3 h
Method in brief: as §1

[9] = tested on: Enterococcus faecalis (ATCC 29212); settings: for Ability to kill E. faecalis: 3 h, ~10^7 log phase bacteria, peptides ≤25 µM; for MBC Enterococcus faecalis: ATCC 29212, 3 h
Method in brief: as §1

Row | Structure (SMILES) | MBC Acinetobacter baumannii [1] [µM] | MBC Escherichia coli [2] [µM] | MBC Pseudomonas aeruginosa [3] [µM] | MBC Salmonella enterica [4] [µM] | MBC Klebsiella pneumoniae [5] [µM] | MBC Staphylococcus aureus [6] [µM] | Antibacterial spectrum over the eight tested bacterial strains [7] | MBC Listeria monocytogenes [8] [µM] | Ability to kill E. faecalis [9] | MBC Enterococcus faecalis [9] [µM]
1 | CC(C)C[C@H](NC(=O)[C@H](CS)NC(=O)[C@H](CCCCN)NC(=O)CNC(=O)[C@@H](N)Cc1ccccc1)C(=O)N[C@@H](CCCCN)C(=O)N[C@@H](CC(C)C)C(=O)N[C@@H](CCCCN)C(=O)N[C@@H](CS)C(=O)N[C@H](C(=O)N[C@@H](Cc1ccc(O)cc1)C(=O)N[C@H](C(=O)N1CCC[C@H]1C(=O)N[C@@H](CCCCN)C(=O)N[C@@H](CCCNC(=N)N)C(N)=O)[C@@H](C)O)C(C)C [GoNCR308 (16-30)] (H-FGKCLKLKCVYTPKR-NH2; N-terminus assumed) | 3.125 (≈ 5.57 µg/mL) | 3.125 (≈ 5.57 µg/mL) | 3.125 (≈ 5.57 µg/mL) | 3.125 (≈ 5.57 µg/mL) | 25 (≈ 44.6 µg/mL) | 50 (≈ 89.2 µg/mL) | – | – | – | –
2 | CC[C@H](C)[C@H](NC(=O)[C@H](CCC(N)=O)NC(=O)[C@H](CCCCN)NC(=O)[C@H](CCCNC(=N)N)NC(=O)[C@@H](NC(=O)[C@H](Cc1ccccc1)NC(=O)[C@H](Cc1ccccc1)NC(=O)[C@H](Cc1ccc(O)cc1)NC(=O)[C@H](Cc1c[nH]cn1)NC(=O)[C@H](CS)NC(=O)[C@H](Cc1ccccc1)NC(=O)[C@H](CCCCN)NC(=O)CNC(=O)[C@@H](NC(=O)[C@H](CS)NC(=O)[C@H](CCSC)NC(=O)[C@H](CCSC)NC(=O)[C@@H](NC(=O)[C@@H](NC(=O)[C@@H]1CCCN1C(=O)[C@H](CCCCN)NC(=O)[C@@H](NC(=O)[C@@H](NC(=O)[C@H](CCCCN)NC(=O)[C@@H]1CCCN1C(=O)[C@H](CS)NC(=O)[C@H](CC(=O)O)NC(=O)[C@H](CC(=O)O)NC(=O)[C@@H](NC(=O)[C@@H](NC(=O)[C@H](C)NC(=O)[C@H](CS)NC(=O)[C@H](CCCNC(=N)N)NC(=O)[C@@H](NC(=O)[C@H](CC(=O)O)NC(=O)[C@H](CC(C)C)NC(=O)[C@H](CCCCN)NC(=O)[C@@H](N)CCC(=O)O)[C@@H](C)CC)[C@@H](C)O)C(C)C)C(C)C)[C@@H](C)O)C(C)C)C(C)C)[C@@H](C)O)C(C)C)C(=O)N[C@@H](CC(C)C)C(=O)O [NCR073] (H-EKLDIRCATVDDCPKVTKPVVMMCTGKFCHYFFVRKQIL-OH; N-terminus assumed) | 1.6 (≈ 7.3 µg/mL) | 3.125 (≈ 14.3 µg/mL) | 6.25 (≈ 28.5 µg/mL) | 6.25 (≈ 28.5 µg/mL) | 6.25 (≈ 28.5 µg/mL) | 6.25 (≈ 28.5 µg/mL) | capable of killing all tested bacteria; also recorded: active against all the eight tested pathogens | 6.25 (≈ 28.5 µg/mL) | able to kill | 6.25 (≈ 28.5 µg/mL)
3 | CSCC[C@H](NC(=O)[C@H](Cc1ccccc1)NC(=O)[C@H](CCCCN)NC(=O)[C@@H]1CCCN1C(=O)[C@H](CS)NC(=O)[C@H](CCCNC(=N)N)NC(=O)CNC(=O)[C@H](CC(=O)O)NC(=O)[C@H](CCCNC(=N)N)NC(=O)CNC(=O)[C@H](CS)NC(=O)[C@H](CC(C)C)NC(=O)[C@@H](NC(=O)[C@H](CCCNC(=N)N)NC(=O)[C@@H](N)CCSC)C(C)C)C(=O)N[C@@H](CS)C(=O)N[C@@H](CCCNC(=N)N)C(=O)N[C@H](C(=O)N[C@@H](Cc1ccccc1)C(=O)N[C@@H](CC(C)C)C(=O)O)[C@@H](C)O [NCR280] (H-MRVLCGRDGRCPKFMCRTFL-OH; N-terminus assumed) | 1.6 (≈ 3.82 µg/mL) | 3.125 (≈ 7.47 µg/mL) | 12.5 (≈ 29.9 µg/mL) | 3.125 (≈ 7.47 µg/mL) | 25 (≈ 59.8 µg/mL) | – | active against all strains except S. aureus and E. faecalis | 3.125 (≈ 7.47 µg/mL) | – | –
4 | CC[C@H](C)[C@H](N)C(=O)N[C@@H](Cc1ccc(O)cc1)C(=O)N[C@@H](Cc1ccccc1)C(=O)N[C@@H](CCCNC(=N)N)C(=O)N[C@@H](CCCCN)C(=O)N1CCC[C@H]1C(=O)N1CCC[C@H]1C(=O)N1CCC[C@H]1C(=O)N[C@@H](CS)C(=O)N[C@H](C(=O)N[C@H](C(=O)N[C@@H](CC(=O)O)C(=O)N[C@@H](CCCCN)C(=O)N[C@@H](CC(=O)O)C(=O)N[C@@H](CS)C(=O)N1CCC[C@H]1C(=O)N[C@@H](CCC(N)=O)C(=O)N[C@@H](CCSC)C(=O)N[C@@H](CCCCN)C(=O)N[C@H](C(=O)N[C@@H](CC(N)=O)C(=O)N[C@@H](CC(N)=O)C(=O)N[C@H](C(=O)N[C@@H](CCCNC(=N)N)C(=O)N[C@@H](CS)C(=O)N[C@@H](CCCNC(=N)N)C(=O)N[C@@H](CCCCN)C(=O)NCC(=O)N[C@@H](Cc1ccccc1)C(=O)N[C@@H](CS)C(=O)N[C@H](C(=O)N[C@@H](CCC(N)=O)C(=O)N[C@H](C(=O)N[C@@H](Cc1c[nH]cn1)C(=O)N[C@@H](CCCCN)C(=O)N[C@@H](Cc1ccccc1)C(=O)N[C@H](C(=O)N1CCC[C@H]1C(=O)O)[C@@H](C)O)[C@@H](C)CC)[C@@H](C)CC)C(C)C)[C@@H](C)CC)[C@@H](C)O)[C@@H](C)CC [NCR358] (H-IYFRKPPPCITDKDCPQMKINNVRCRKGFCIQIHKFTP-OH; N-terminus assumed) | 3.125 (≈ 14.2 µg/mL) | 1.6 (≈ 7.26 µg/mL) | 3.125 (≈ 14.2 µg/mL) | 3.125 (≈ 14.2 µg/mL) | 25 (≈ 113 µg/mL) | 3.125 (≈ 14.2 µg/mL) | capable of killing all tested bacteria; also recorded: active against all the eight tested pathogens | 3.125 (≈ 14.2 µg/mL) | able to kill | 6.25 (≈ 28.4 µg/mL)
5 | CC[C@H](C)[C@H](NC(=O)[C@H](CC(N)=O)NC(=O)[C@H](Cc1ccc(O)cc1)NC(=O)[C@H](CCCCN)NC(=O)[C@H](CCCCN)NC(=O)[C@H](Cc1ccccc1)NC(=O)[C@H](CCCCN)NC(=O)[C@@H]1CCCN1C(=O)[C@H](CS)NC(=O)[C@H](CC(=O)O)NC(=O)[C@H](CCCCN)NC(=O)[C@H](CC(=O)O)NC(=O)[C@@H](NC(=O)[C@@H](NC(=O)[C@H](CS)NC(=O)[C@H](Cc1ccc(O)cc1)NC(=O)[C@H](CCC(N)=O)NC(=O)[C@H](CCCNC(=N)N)NC(=O)[C@@H](NC(=O)[C@H](CC(C)C)NC(=O)[C@@H]1CCCN1C(=O)[C@H](CC(N)=O)NC(=O)[C@H](Cc1ccccc1)NC(=O)[C@H](CO)NC(=O)[C@@H](N)CC(=O)O)[C@@H](C)CC)C(C)C)[C@@H](C)O)C(=O)N[C@@H](CCCNC(=N)N)C(=O)N[C@@H](CS)C(=O)N[C@@H](CCCNC(=N)N)C(=O)N[C@@H](CCCCN)C(=O)NCC(=O)N[C@@H](Cc1ccccc1)C(=O)N[C@@H](CS)C(=O)N[C@H](C(=O)N[C@@H](CCC(N)=O)C(=O)N[C@H](C(=O)N[C@@H](CC(N)=O)C(=O)NCC(=O)NCC(=O)O)C(C)C)C(C)C [NCR377] (H-DSFNPLIRQYCVTDKDCPKFKKYNIRCRKGFCVQVNGG-OH; N-terminus assumed) | 6.25 (≈ 27.8 µg/mL) | 3.125 (≈ 13.9 µg/mL) | 3.125 (≈ 13.9 µg/mL) | 6.25 (≈ 27.8 µg/mL) | 12.5 (≈ 55.5 µg/mL) | 6.25 (≈ 27.8 µg/mL) | kill all bacteria except E. faecalis | 12.5 (≈ 55.5 µg/mL) | – | –
6 | CC[C@H](C)[C@H](NC(=O)[C@H](CC(C)C)NC(=O)[C@H](CC(N)=O)NC(=O)[C@@H](NC(=O)[C@H](CS)NC(=O)[C@H](Cc1ccc(O)cc1)NC(=O)CNC(=O)[C@H](CCCCN)NC(=O)[C@H](CCCNC(=N)N)NC(=O)[C@H](CS)NC(=O)[C@H](CCCNC(=N)N)NC(=O)[C@@H](NC(=O)[C@H](CC(N)=O)NC(=O)[C@H](CCSC)NC(=O)CNC(=O)[C@H](C)NC(=O)[C@H](CCCNC(=N)N)NC(=O)[C@H](CCCNC(=N)N)NC(=O)[C@@H](NC(=O)[C@H](CS)NC(=O)[C@H](CC(=O)O)NC(=O)[C@H](CCCCN)NC(=O)[C@H](CC(=O)O)NC(=O)[C@@H](NC(=O)[C@@H](NC(=O)[C@H](CS)NC(=O)[C@@H]1CCCN1C(=O)[C@H](CC(N)=O)NC(=O)[C@@H]1CCCN1C(=O)[C@@H](NC(=O)[C@H](Cc1c[nH]cn1)NC(=O)[C@H](CO)NC(=O)[C@H](Cc1ccc(O)cc1)NC(=O)[C@@H](N)Cc1ccccc1)C(C)C)[C@@H](C)CC)[C@@H](C)O)[C@@H](C)CC)[C@@H](C)CC)C(C)C)C(=O)N[C@@H](CC(C)C)C(=O)N[C@@H](CCCNC(=N)N)C(=O)O [NCR700] (H-FYSHVPNPCITDKDCIRRAGMNIRCRKGYCVNLILR-OH; N-terminus assumed) | 1.6 (≈ 6.76 µg/mL) | 3.125 (≈ 13.2 µg/mL) | 6.25 (≈ 26.4 µg/mL) | 12.5 (≈ 52.8 µg/mL) | 12.5 (≈ 52.8 µg/mL) | – | active against all strains except S. aureus and E. faecalis | 1.6 (≈ 6.76 µg/mL) | – | –
